Measured values: patent publication US5902817A, “Certain sulfoxide and sulfone derivatives” (priority 1997, dated 1999)
Like-named read-outs stand apart in the source and are kept apart here. Where a SMILES comes first, the peptide text is derived from it.

Assays:
[1] = In Vivo Toxicity of NAALADase Inhibitors (survival of mice); conditions: mouse, injected, read-out: Survival Rate After 5 days
Source text: The mice were subsequently observed two times per day for 5 consecutive days.

cortical cell cultures = assay: In Vitro Toxicity of NAAG following Treatment with NAALADase Inhibitors (LDH release); type: cell-based, rat (Harlan Sprague Dawley); conditions: inhibitor 1 μM; NAAG 3 μM, n = 1
Description: Experiments are performed after 21 days in cultures.
At the end of exposure, the cells are washed once with HEPES buffered saline solution and then replaced with serum free modified Earle's basal medium. The cultures are then returned to the CO2 incubator for 24 hour recovery.
This control measurement is subtracted from each experimental point.

[2] = test system: injury to the cortex in rats following middle cerebral artery occlusion; conditions: n = 10
Source text: A colony of SHRSP rats is bred at Johns Hopkins School of Medicine from three pairs of male and female rats obtained from the National Institutes of Health (Laboratory, Sciences Section, Veterinary Resources Program, National Center for Research Resources, Bethesda, Md.). All rats are kept in a virus-free environment and maintained on regular diet (NIH 31, Zeigler Bros, Inc.) with water ad libitum. All groups of rats are allowed to eat and drink water until the morning of the experiment. […]
Arterial pH and PaCO2, and partial pressure of oxygen (PaO2) are measured with a self-calibrating Radiometer electrode system (ABL 3; Copenhagen, Denmark). Hemoglobin and arterial oxygen content are measured with a hemoximeter (Radiometer, Model OSM3; Copenhagen, Denmark). Blood glucose is measured with a glucose analyzer (model 2300A, Yellow Springs Instruments, Yellow Springs, Ohio).
Each group is exposed to 2 hours of right MCA occlusion and 22 hours of reperfusion. All variables but the rectal temperature are measured at baseline, at 15 minutes and 45 minutes of right MCA occlusion. The rectal temperature is measured at baseline, at 0 and 15 min of MCA occlusion, and at 0 and 22 hours of reperfusion.

LNCAP cells = conditions: 7 days, mean +/- SEM
Description: On the 7th day, the cells are pulsed with 3H-thymidine for 4 hours, harvested and measured for radioactivity. Values represent means +/- SEM of 6 separate cell wells for each treatment. All experiments are performed at least twice.
LNCAP cells are obtained from Dr. William Nelson at the Johns Hopkins School of Medicine in Baltimore, Md. […] Cells are grown in RPMI-1640 media supplemented with 5% heat-inactivated fetal calf serum, 2 mM-glutamine, 100 units/ml penicillin, and 100 μg/ml streptomycin (Paragon) in a humidified incubator at 37° C. in a 5% CO2 /95% air atmosphere.
The cells are suspended at 1×10^3 cells/ml in RPMI-1640 media and seeded into 24-well plates at 500 μl per well. […] On days 3, 5 and 7, media and drug are refreshed. On the 8th day following seeding, each well is pulsed with 1 μCi ^3 H-thymidine (New England Nuclear) for 4 hours. Media is then removed and the wells washed 2 times with phosphate buffered saline (pH=7.4). […] 5 ml UltimaGold (Packard) scintillation cocktail is added and radioactivity is quantitated using a Beckman LS6001 scintillation counter.

NAALADase [3] = biological target: T1, NAALADase (Rattus norvegicus, UniProt P70627); assay: In Vitro Assay of NAALADase Activity ([3H]Glu liberated from [3H]NAAG, synaptosomal protein); type: biochemical; set-up: of synaptosomal protein; from tissue; host or cells: synaptosomal protein (brain tissue; rat by inference)
T1 sequence (P70627 whole entry): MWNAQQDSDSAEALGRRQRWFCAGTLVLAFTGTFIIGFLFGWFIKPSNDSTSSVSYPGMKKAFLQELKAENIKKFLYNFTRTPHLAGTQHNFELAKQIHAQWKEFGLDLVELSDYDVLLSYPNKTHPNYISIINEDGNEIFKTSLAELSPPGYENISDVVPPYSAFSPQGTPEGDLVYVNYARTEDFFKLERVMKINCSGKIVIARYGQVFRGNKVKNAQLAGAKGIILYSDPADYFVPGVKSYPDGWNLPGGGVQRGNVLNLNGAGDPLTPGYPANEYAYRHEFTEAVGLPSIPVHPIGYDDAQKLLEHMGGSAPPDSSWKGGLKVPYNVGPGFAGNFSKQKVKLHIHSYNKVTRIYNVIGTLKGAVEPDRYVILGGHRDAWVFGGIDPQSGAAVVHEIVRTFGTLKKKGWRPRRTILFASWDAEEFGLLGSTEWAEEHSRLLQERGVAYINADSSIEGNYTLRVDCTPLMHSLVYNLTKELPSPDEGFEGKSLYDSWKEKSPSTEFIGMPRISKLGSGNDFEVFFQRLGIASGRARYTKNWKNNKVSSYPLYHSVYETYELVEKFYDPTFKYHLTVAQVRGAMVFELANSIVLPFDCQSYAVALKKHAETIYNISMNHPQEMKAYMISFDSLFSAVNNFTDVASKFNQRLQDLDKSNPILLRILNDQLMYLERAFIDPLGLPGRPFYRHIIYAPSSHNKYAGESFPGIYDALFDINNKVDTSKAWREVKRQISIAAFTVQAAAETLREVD
Description: Substrate and product were resolved by anion-exchange liquid chromatography. […] Quisqualate (100 μM) was included in parallel assay tubes to confirm the specificity of the measurements.

NAALADase [4] = biological target: T1, NAALADase; conditions: substrate NAAG; cited from earlier work

Row | SMILES | survival at 120 h ([1]; 1 mg/kg) [%] | survival at 120 h ([1]; 5 mg/kg) [%] | survival at 120 h ([1]; 10 mg/kg) [%] | survival at 120 h ([1]; 30 mg/kg) [%] | survival at 120 h ([1]; 100 mg/kg) [%] | survival at 120 h ([1]; 300 mg/kg) [%] | survival at 120 h ([1]; 500 mg/kg) [%] | % Toxicity (cortical cell cultures) [%] | Cortical Injury Volume ± S.E.M. ([2]; 10 mg/kg followed by 2 mg/kg/hr for 1 hour) [mm^3] | Cortical Injury Volume ± S.E.M. ([2]; 100 mg/kg followed by 20 mg/kg/hr for one hour) [mm^3] | 3H-Thymidine Incorporation (LNCAP cells; dose 10 pM) [dpm/well] | 3H-Thymidine Incorporation (LNCAP cells; dose 100 pM) [dpm/well] | 3H-Thymidine Incorporation (LNCAP cells; dose 1 nM) [dpm/well] | 3H-Thymidine Incorporation (LNCAP cells; dose 10 nM) [dpm/well] | NAALADase inhibiting activity (in words) (NAALADase [3]) | Km (NAALADase [4]) [µM]
1 | O=C(O)CCC(CP(=O)(O)O)C(=O)O (centres unmarked) [2-(phosphonomethyl)pentanedioic acid] | 100 | 100 | 100 | 100 | 100 | 100 | 66.7 | -4.71 | 135.00 ± 32.18 | 65.23 ± 32.18 | 3078 ± 1006 | 2062 ± 595 | 1001 ± 52 | 664 ± 366 | high NAALADase inhibiting activity | 
2 | O=C(O)CCC(CP(=O)(O)CCC(=O)O)C(=O)O (centres unmarked) [2-[[2-carboxyethyl)hydroxyphosphinol]methyl]pentanedioic acid] |  |  |  |  |  |  |  |  |  |  |  |  |  |  | lower NAALADase inhibiting activity than 2-(phosphonomethyl)pentanedioic acid | 
3 | CC(=O)N[C@@H](CC(=O)O)C(=O)N[C@@H](CCC(=O)O)C(=O)O [NAAG, N-acetyl-aspartyl-glutamate] (Ac-Asp-Glu-OH) |  |  |  |  |  |  |  |  |  |  |  |  |  |  |  | 0.54
